Assay results from patent US20090088419A1, “PYRIDYL ACETIC ACID COMPOUNDS” (TAKEDA PHARMACEUTICAL COMPANY LIMITED, priority 2005, published 2009).
Where a name gives a salt, the structure may show the parent alone.

Target: T1, dipeptidyl peptidase IV (Rattus norvegicus, UniProt P14740)
T1 construct: from tissue; host or cells: SD rat blood plasma
Assay: Determination of dipeptidyl peptidase IV inhibitory activity in rat plasma (Experimental Example 2)
Format: biochemical
Conditions: plasma of SD rat, same manner as Experimental Example 1; Table 6
Protocol: (§1) A dimethylformamide solution (1 μL) containing the test compound was added to a mixture of water (69 μL), 1 M Tris-hydrochloride buffer (10 μL, pH 7.5) and 1 mM aqueous Gly-Pro-p-NA solution (100 μL) to prepare a mixed solution. Plasma (20 μL) prepared from blood of SD rat according to a conventional method was added to the above-mentioned mixed solution and the enzyme reaction was started at 30° C. The absorbance after 0 hr. and 1 hr. was measured using a microplate reader at a wavelength of 405 nm and an increase (AODs) was determined. At the same time, an increase (AODc) in absorbance of the reaction mixture without the test compound, and an increase (AODb) in absorbance of the reaction mixture without the test compound and the enzyme were determined and the inhibition rate of dipeptidyl peptidase IV enzyme activity was calculated from the following formula:
(§2) {1−[(ΔODs−ΔODb)/(ΔODc−ΔODb)]}×100
(§3) Determination of Dipeptidyl Peptidase IV Inhibitory Activity in Rat Plasma

T1 sequence (P14740 37-767 limits assumed): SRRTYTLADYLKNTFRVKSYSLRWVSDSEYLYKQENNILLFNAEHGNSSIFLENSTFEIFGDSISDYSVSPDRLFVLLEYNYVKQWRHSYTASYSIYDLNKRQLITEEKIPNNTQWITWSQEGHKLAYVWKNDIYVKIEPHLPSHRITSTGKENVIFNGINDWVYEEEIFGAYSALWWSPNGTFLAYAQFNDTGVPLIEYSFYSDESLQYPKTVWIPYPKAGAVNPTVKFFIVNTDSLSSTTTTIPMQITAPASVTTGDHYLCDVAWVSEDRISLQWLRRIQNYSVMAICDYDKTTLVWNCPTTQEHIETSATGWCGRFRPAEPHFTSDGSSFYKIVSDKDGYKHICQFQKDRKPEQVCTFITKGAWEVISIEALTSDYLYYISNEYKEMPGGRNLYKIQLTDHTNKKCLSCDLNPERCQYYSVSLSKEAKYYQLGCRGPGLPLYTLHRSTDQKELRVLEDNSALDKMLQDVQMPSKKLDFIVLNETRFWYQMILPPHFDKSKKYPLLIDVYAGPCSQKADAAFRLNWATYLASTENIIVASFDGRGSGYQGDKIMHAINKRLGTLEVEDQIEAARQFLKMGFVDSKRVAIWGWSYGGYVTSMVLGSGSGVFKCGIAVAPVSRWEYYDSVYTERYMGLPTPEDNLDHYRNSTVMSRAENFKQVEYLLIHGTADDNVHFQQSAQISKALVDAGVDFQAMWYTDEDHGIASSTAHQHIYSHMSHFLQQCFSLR

Compared with `Cc1ccc(-c2c(CN)c(CC(C)C)nc(CC(C)C)c2CC(=O)O)cc1` [Example 2, [5-(aminomethyl)-2,6-diisobutyl-4-(4-methylphenyl)pyridin-3-yl]acetic acid dihydrochloride], `CCc1nc(CC(C)(C)C)c(CN)c(-c2ccc(C)cc2)c1CC(=O)N1CCC[C@H]1C(N)=O` [Example 6, 1-{[5-(aminomethyl)-2-ethyl-4-(4-methylphenyl)-6-neopentylpyridin-3-yl]acetyl}-L-prolinamide] is 13-fold lower in IC50: 35 nM for the first, 2.7 nM for the second.

Going from `CCc1nc(CC(C)(C)C)c(CN)c(-c2ccc(C)cc2)c1CC(=O)Nc1cccc(C(C)=O)c1` [Example 5, N-(3-acetylphenyl)-2-[5-(aminomethyl)-2-ethyl-4-(4-methylphenyl)-6-neopentylpyridin-3-yl]acetamide dihydrochloride] to `CCc1nc(CC(C)(C)C)c(CN)c(-c2ccc(C)cc2)c1CC(=O)Nc1cccc(S(C)(=O)=O)c1` [Example 7, 2-[5-(aminomethyl)-2-ethyl-4-(4-methylphenyl)-6-neopentylpyridin-3-yl]-N-[3-(methylsulfonyl)phenyl]acetamide dihydrochloride], the IC50 rises from 5.1 nM to 51 nM (10-fold). The first is the more potent here.

Target: T1, dipeptidyl peptidase IV
Assay: Determination of dipeptidyl peptidase IV inhibitory activity in rat plasma (Experimental Example 1)
Format: biochemical
Conditions: plasma of SD rat, substrate Gly-Pro-p-NA, 30° C., absorbance 405 nm after 1 hr; Table 5
Protocol: as §3, §1, §2
The dipeptidyl peptidase IV inhibitory activity of the test compound group is expressed in IC50 value (nM) and shown in Table 5.

First: CCc1nc(CC(C)C)c(CN)c(-c2ccc(C)cc2)c1CC(=O)O [Example 1, [5-(aminomethyl)-2-ethyl-6-isobutyl-4-(4-methylphenyl)pyridin-3-yl]acetic acid]
Second: Cc1ccc(-c2c(CN)c(CC(C)C)nc(CC(C)C)c2CC(=O)N2CCC[C@H]2C(N)=O)cc1 [Example 45]
The IC50 of the first is 16-fold higher: 33 nM for the first, 2 nM for the second.

Going from `Cc1ccc(-c2c(CN)c(CC(C)C)nc(CC(C)C)c2CC(=O)N2CCC(S(C)(=O)=O)C2)cc1` (stereo not shown) [Example 10, [(2,6-diisobutyl-4-(4-methylphenyl)-5-{2-[3-(methylsulfonyl)pyrrolidin-1-yl]-2-oxoethyl}pyridin-3-yl)methyl]amine ditrifluoroacetate] to `Cc1ccc(-c2c(CN)c(CC(C)C)nc(CC(C)C)c2CC(=O)N2C[C@@H](C)O[C@@H](C)C2)cc1` [Example 20], the IC50 rises from 0.85 nM to 8.4 nM (9.9-fold).

`CC(=O)N1CCN(C(=O)Cc2c(CC(C)C)nc(CC(C)C)c(CN)c2-c2ccc(C)cc2)CC1` [Example 47] and `CCc1nc(CC(C)(C)C)c(CN)c(-c2ccc(C)cc2)c1CC(=O)N1CCN(C(C)=O)CC1` [Example 89] are within 1.5-fold of each other in IC50: 4.8 nM for the first, 3.6 nM for the second.

Compared with `CCc1nc(CC(C)(C)C)c(CN)c(-c2ccc(C)cc2)c1CC(=O)N1C[C@@H](C)O[C@@H](C)C1` [Example 64], `CCc1nc(CC(C)(C)C)c(CN)c(-c2ccc(C)cc2)c1CC(=O)N1CCC[C@H]1C(N)=O` [Example 87] is 5.3-fold lower in IC50: 1.7 nM for the first, 0.32 nM for the second.

`CCc1nc(CC(C)(C)C)c(CN)c(-c2ccc(C)cc2)c1CC(=O)Nc1ccc(C(C)=O)cc1` [Example 80] was tested, and the IC50 was 11 nM.
